The test system of this assay is Mycobacterium thermoresistibile. Put plainly: Covalent binding affinity to Mycobacterium thermoresistibile IMPDH deltaCBS variant assessed as adduct formation at Cys341 by measuring 330 Da shift of increment in protein mass measured under denaturing conditions by ESI-MS spectral analysis.

The source made the active and inactive calls. The calls are words filed in the database; no cut-off is given here.

`O=P(O)(O)OC[C@H]1O[C@@H](n2cnc3c(Cl)ncnc32)[C@H](O)[C@@H]1O`: the outcome was Active.
